According to patent publication EP0326331B1, “Substituted quinolines and cinnolines” (Dow AgroSciences LLC, priority 1988, dated 1989):

Columns and labels:
Type in all cases: in vivo
[1] = test system: southern armyworm (Spodopetra eridania Cramer); experiment: Mite/insect screen, SAW; conditions: Spodoptera eridania, percent mortality, SAW, read-out: SAW RESULTS %; for mortality at 200 ppm: SM & MA RATE 200 PPM; for mortality at 400 ppm: SM & MA RATE 400 PPM
Protocol: (§1) The compounds of Examples 1-295 were tested for miticidal and insecticidal activity in the following mite/insect screen.
(§2) Each test compound was formulated by dissolving the compound in acetone/alcohol (50:50) mixture containing 23 g of "TOXIMUL R" (sulfonate/nonionic emulsifier blend) and 13 g of "TOXIMUL S" (sulfonate/nonionic emulsifier blend) per liter. These mixtures were then diluted with water to give the indicated concentrations.
(§3) Other plants in the same treatment pot were left uninfested. The leaves were then sprayed with 5 ml of test solution using a DeVilbiss atomizing sprayer at 10 psi. Both surfaces of the leaves were covered until runoff, and then allowed to dry for one hour. Two uninfested leaves were then excised and placed into a Petri dish containing southern armyworm (Spodopetra eridania Cramer).
(§4) After standard exposure periods, percent mortality was evaluated. […]

[2] = test system: Pyricularia oryzae (rice blast); experiment: whole plant or invertebrate; conditions: disease control rating, foliar spray on rice, 400 ppm (+++ at 100 ppm)
[3] = test system: melon aphids (Aphis gossypii Glover); experiment: Mite/insect screen, MA; conditions: Aphis gossypii, percent mortality, SAW, read-out: MA RESULTS %; for mortality at 200 ppm: SM & MA RATE 200 PPM; for mortality at 400 ppm: SM & MA RATE 400 PPM
Protocol: as §1, §2, §3, §4

corn rootworm = experiment: Mite/insect screen, CRW; conditions: percent mortality, read-out: CRW RESULTS %; for mortality at 12 ppm: CRW RATE 12.00 PPM; for mortality at 24 ppm: CRW RATE 24.00 PPM
Protocol: as §1, §2, §4

[4] = test system: Erysiphe graminis tritici (powdery mildew); experiment: Test 1 greenhouse foliar spray screen, powdery mildew on wheat; conditions: disease control rating, foliar spray on wheat, 400 ppm (+++ at 100 ppm)
[5] = test system: Twospotted spider mites (Tetranychus urticae Koch); experiment: Mite/insect screen, SM; conditions: Tetranychus urticae, percent mortality, SAW, read-out: SM RESULTS %; for mortality at 200 ppm: SM & MA RATE 200 PPM; for mortality at 400 ppm: SM & MA RATE 400 PPM
Protocol: as §1, §2, §3, §4

[6] = test system: Botrytis cinerea (gray mold); experiment: Test 1 greenhouse foliar spray screen, gray mold on grape berries; conditions: disease control rating, spray on grape berries, 400 ppm (+++ at 100 ppm)
[7] = test system: Puccinia recondita tritici (leaf rust); experiment: Test 1 greenhouse foliar spray screen, leaf rust on wheat; conditions: disease control rating, foliar spray on wheat, 400 ppm (+++ at 100 ppm)
[8] = test system: Pseudoperonospora cubensis (downy mildew); experiment: Test 1 greenhouse foliar spray screen, downy mildew on squash; conditions: disease control rating, foliar spray on squash, 400 ppm (+++ at 100 ppm)

Row | Compound | mortality at 200 ppm [1] [%] | mortality at 400 ppm [1] [%] | RICE BLAST [2] | mortality at 200 ppm [3] [%] | mortality at 400 ppm [3] [%] | mortality at 12 ppm (corn rootworm) [%] | mortality at 24 ppm (corn rootworm) [%] | POWD MDEW [4] | mortality at 200 ppm [5] [%] | mortality at 400 ppm [5] [%] | GRAY MOLD [6] | LEAF RUST [7] | DOWN MDEW [8]
1 | Clc1ccc(CCNc2ccnc3cc(Cl)cc(Cl)c23)cc1 [Example 59, 5,7-dichloro-N-[2-(4-chlorophenyl)ethyl]-4-quinolinamine] | 0 | 0 | + (20-89% control at 400 ppm) | 0 | 0 | 0 | 0 | + (20-89% control at 400 ppm) | 0 | 0 | - (0-19% control at 400 ppm) | - (0-19% control at 400 ppm) | - (0-19% control at 400 ppm)
2 | Clc1ccc2c(NCCc3cccc(Oc4ccccc4)c3)ccnc2c1 [Example 60, 7-chloro-N-[2-(3-phenoxyphenyl)ethyl]-4-quinolinamine] | 0 | 0 | +++ (90-100% control at 100 ppm) | 0 | 0 | 0 | 0 | ++ (90-100% control at 400 ppm) | 0 | 0 | - (0-19% control at 400 ppm) | ++ (90-100% control at 400 ppm) | +++ (90-100% control at 100 ppm)
3 | Cc1cccc2c(NCCc3ccc(Cl)cc3)ccnc12 [Example 61, 8-methyl-N-[2-(4-chlorophenyl)ethyl]-4-quinolinamine] | 0 | 0 | ++ (90-100% control at 400 ppm) | 0 | 0 | 0 | 0 | - (0-19% control at 400 ppm) | 0 | 0 | - (0-19% control at 400 ppm) | ++ (90-100% control at 400 ppm) | +++ (90-100% control at 100 ppm)
4 | Fc1cccc2c(NCCc3ccccc3Oc3ccccc3)ccnc12 [Example 63, 8-fluoro-N-[2-(2-phenoxyphenyl)ethyl]-4-quinolinamine] |  | 0 | + (20-89% control at 400 ppm) |  | 0 |  | 0 | - (0-19% control at 400 ppm) |  | 0 | - (0-19% control at 400 ppm) | +++ (90-100% control at 100 ppm) | ++ (90-100% control at 400 ppm)
5 | Cc1ccc2c(NCCc3ccccc3Oc3ccccc3)ccnc2c1C [Example 64, 7,8-dimethyl-N-[2-(2-phenoxyphenyl)ethyl]-4-quinolinamine] | 60 | 0 | - (0-19% control at 400 ppm) | 0 | 0 | 0 | 0 | + (20-89% control at 400 ppm) | 0 | 0 | - (0-19% control at 400 ppm) | + (20-89% control at 400 ppm) | +++ (90-100% control at 100 ppm)
6 | Clc1ccc(CCNc2ccnc3c(Cl)cccc23)cc1 [Example 85, 8-chloro-N-[2-(4-chlorophenyl)ethyl]-4-quinolinamine] | 0 | 0 | - (0-19% control at 400 ppm) | 0 | 0 | 0 | 0 | - (0-19% control at 400 ppm) | 0 | 0 | - (0-19% control at 400 ppm) | + (20-89% control at 400 ppm) | - (0-19% control at 400 ppm)
